According to patent US10117950B2, “Compounds and compositions for the treatment of ocular disorders” (Graybug Vision, Inc., priority 2015, dated 2018):
Like-named read-outs stand apart in the source and are kept apart here.

Tests used:
[1] = Determination of drug solubility; format: physicochemical; details: for solubility: thermodynamic from solid
Experimental: For each test, approximately 5-10 mg was transferred to a 10 mL glass vial. Aqueous or organic solvent was added to each vial to achieve an overall concentration of 50 mg/mL. After vortexing aggressively for 2-3 minutes and sonicating in a bath sonicator for 5 minutes, undissolved drug was spun down at 1200 rpm for 5 minutes to generate a pellet. The supernatant was collected and filtered through a 0.2 μm nylon syringe filter into HPLC vials for drug content analysis. Drug concentration was determined by comparing against a standard calibration curve.

[2] = molecular target: T1, bovine erythrocyte carbonic anhydrase II (Bos taurus, UniProt P00921); assay: Carbonic anhydrase II inhibition, colorimetric 4-nitrophenyl acetate hydrolysis; format: biochemical; details: for IC50: n = 2
T1 construct: purified bovine erythrocyte carbonic anhydrase II; from tissue; host or cells: bovine erythrocytes
T1 sequence (P00921 whole entry): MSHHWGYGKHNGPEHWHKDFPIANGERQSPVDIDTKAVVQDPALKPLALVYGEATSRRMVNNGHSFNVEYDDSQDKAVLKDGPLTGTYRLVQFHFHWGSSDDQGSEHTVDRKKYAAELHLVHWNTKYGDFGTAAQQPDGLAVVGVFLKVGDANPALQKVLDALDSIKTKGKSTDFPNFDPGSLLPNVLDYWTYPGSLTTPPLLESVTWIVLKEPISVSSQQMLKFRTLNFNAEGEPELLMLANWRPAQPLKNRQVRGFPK
Experimental: The catalytic activity of carbonic anhydrase II was assessed by a colorimetric method, in which 4-nitrophenyl acetate is hydrolyzed to acetate and nitrophenolate. The nitrophenolate ionizes to generate a bright yellow anion that is readily detected by measuring its absorbance at 350-400 nm. […] Acetazolamide was added as a positive control and 100% DMSO was added as a negative control. The reaction was initiated with the addition of 20 μL of 4-nitrophenyl acetate (0.7 mM in ethanol).

[3] = In vitro stability of brinzolamide and dorzolamide NCEs (RP-HPLC); details: PBS pH 7, 10% DMSO; for in vitro stability / degradation kinetics: 37° C. and accelerated conditions, 14-19 days; for primary compound remaining: 37° C.
Experimental: The samples were incubated at 37° C. or 50° C. to simulate physiological and accelerated degradation conditions, respectively. At various time points, 100 μL of the solution was collected, diluted 10-fold with MeCN+0.1% formic acid, filtered through a 0.2 μm nylon syringe filter and analyzed by RP-HPLC.

[4] = In vitro stability of bifunctional conjugates (HPLC, 254 nm); format: physicochemical; details: PBS pH 7.0, 20% DMSO
Experimental: Briefly, brinzolamide-PLA (n=4)-succinate-5-hydroxy-sunitinib (60-1) or dorzolamide-PLA (n=4)-succinate-5-hydroxy-sunitinib (58-5) was first dissolved in a solution of PBS (pH 7.0) with 20% DMSO (v/v) and incubated at 37° C. or 60° C. for 14 days.

[5] = DMSO, organic solvent or mixture, read-out: Solubility DMSO
[6] = water / aqueous solvent, read-out: Solubility Water
[7] = DCM, organic solvent or mixture, read-out: Solubility DCM

Structure (SMILES) | solubility [1, 5] [mg/mL] | solubility [1, 6] [mg/mL] | IC50 [2] [nM] | solubility [1, 7] [mg/mL] | further results
CCN[C@H]1C[C@H](C)S(=O)(=O)c2sc(S(=O)(=O)NC(=O)[C@H](C)OC(=O)[C@H](C)OC(=O)[C@H](C)OC(=O)CCC(=O)Oc3ccc4c(c3)/C(=C/c3[nH]c(C)c(C(=O)NCCN(CC)CC)c3C)C(=O)N4)cc21 [56-5, (3Z)-3-[(4-{[2-(Diethylamino)ethyl]carbamoyl}-3,5-dimethyl-1H-pyrrol-2-yl)methylidene]-2-oxo-2,3-dihydro-1H-indol-5-yl 1-(2S)-1-{[(2S)-1-[(1S)-1-({[(2S,4S)-4-(ethylamino)-2-methyl-1,1-dioxo-2H,3H,4H-1λ^6-thieno[2,3-b]thiopyran-6-yl]sulfonyl}carbamoyl)ethoxy]-1-oxopropan-2-yl]oxy}-1-oxopropan-2-yl butanedioate] | > 50 | < 1 | 184 ± 44.8 |  | carbonic anhydrase inhibitory activity [2]: lowest inhibitory activity
CCN[C@H]1CN(CCCOC)S(=O)(=O)c2sc(S(=O)(=O)NC(=O)[C@H](C)OC(=O)[C@H](C)OC(=O)[C@H](C)OC(=O)[C@H](C)OC(=O)CCC(=O)Oc3ccc4c(c3)/C(=C/c3[nH]c(C)c(C(=O)NCCN(CC)CC)c3C)C(=O)N4)cc21 [60-1, brinzolamide-PLA(n=4)-succinate-5-hydroxy-Sunitinib] | > 50 | < 1 |  |  | PLA (n=4) signal ([4]; after one day of incubation): 15.7%; PLA (n=4) signal ([4]; before incubation): 83%; degradation kinetics ([4]; one day): rapidly hydrolyzed
CCN(CC)CCNC(=O)c1c(C)[nH]c(/C=C2\C(=O)Nc3ccc(OC(=O)CCCCC(=O)N(CC)[C@H]4CN(CCCOC)S(=O)(=O)c5sc(S(=O)(=O)NC(=O)[C@H](C)OC(=O)[C@H](C)OC(=O)[C@H](C)O)cc54)cc32)c1C [61-2, (3Z)-3-[(4-{[2-(diethylamino)ethyl]carbamoyl}-3,5-dimethyl-1H-pyrrol-2-yl)methylidene]-2-oxo-2,3-dihydro-1H-indol-5-yl 5-{ethyl[(4R)-6-{[(2S)-2-{[(2S)-2-{[(2S)-2-hydroxypropanoyl]oxy}propanoyl]oxy}propanamido]sulfonyl}-2-(3-methoxypropyl)-1,1-dioxo-2H,3H,4H-1λ^6-thieno[3,2-e][1,2]thiazin-4-yl]carbamoyl}pentanoate] | > 50 | < 1 |  |  | 
CCN[C@H]1C[C@H](C)S(=O)(=O)c2sc(S(=O)(=O)NC(=O)[C@H](C)OC(=O)[C@H](C)OC(=O)[C@H](C)OC(=O)[C@H](C)OC(=O)[C@H](C)OC(=O)[C@H](C)OC(C)=O)cc21 [29-1, dorzolamide-acetyl PLA (n=6)] | > 50 | < 1 |  | > 50 | 
CCN[C@H]1CN(CCCOC)S(=O)(=O)c2sc(S(=O)(=O)NC(=O)[C@H](C)OC(=O)[C@H](C)OC(=O)[C@H](C)OC(=O)[C@H](C)OC(C)=O)cc21 [37-1, brinzolamide-acetyl PLA (n=4)] | > 50 | < 1 | 41.5 ± 11.2 | > 50 | 
CCN[C@H]1C[C@H](C)S(=O)(=O)c2sc(S(=O)(=O)NC(=O)[C@H](C)OC(=O)[C@H](C)OC(=O)[C@H](C)OC(=O)[C@H](C)OC(=O)[C@H](C)OC(C)=O)cc21 [28-1, dorzolamide-acetyl PLA (n=5)] | > 50 | < 1 | 89.2 ± 18.1 | > 50 | 
CCN[C@H]1CN(CCCOC)S(=O)(=O)c2sc(S(=O)(=O)NC(=O)[C@H](C)OC(=O)[C@H](C)OC(=O)[C@H](C)O)cc21 [34-2, brinzolamide-PLA (n=3)] | > 50 | > 50 | 21.5 ± 11.2 | > 50 | in vitro stability / degradation kinetics [3]: minimal degradation to the parent compound; primary compound remaining ([3]; day 7): approximately 2.7%
CCN[C@H]1CN(CCCOC)S(=O)(=O)c2sc(S(=O)(=O)NC(=O)[C@H](C)OC(=O)[C@H](C)OC(=O)[C@H](C)OC(=O)[C@H](C)OC(=O)[C@H](C)OC(C)=O)cc21 [38-1, brinzolamide-acetyl PLA (n=5)] | > 50 | < 1 | 102 ± 31.4 | > 50 | 
CCN[C@H]1CN(CCCOC)S(=O)(=O)c2sc(S(=O)(=O)NC(=O)[C@H](C)OC(=O)[C@H](C)OC(=O)[C@H](C)OC(C)=O)cc21 [36-1, brinzolamide-acetyl PLA (n=3)] | > 50 | > 50 |  | > 50 | primary compound remaining ([3]; day 7): approximately 15.4%
CCN[C@H]1CN(CCCOC)S(=O)(=O)c2sc(S(=O)(=O)NC(=O)[C@H](C)OC(=O)[C@H](C)OC(=O)[C@H](C)OC(C)(C)C)cc21 [40-1, brinzolamide-t-butyl PLA (n=3)] |  |  |  |  | in vitro stability / degradation kinetics [3]: significantly slower than its acetylated (36-1) or uncapped counterpart (34-2)
CCN[C@H]1CN(CCCOC)S(=O)(=O)c2sc(S(=O)(=O)NC(=O)[C@H](C)OC(=O)[C@H](C)OC(=O)[C@H](C)OC(=O)[C@H](C)OC(=O)[C@H](C)OC(=O)[C@H](C)OC(C)=O)cc21 [39-1, brinzolamide-acetyl PLA (n=6)] | > 50 | < 1 | 172 ± 35.6 | > 50 | 
C=C(CC)C(=O)c1ccc(OCC(=O)O)c(Cl)c1Cl [54-1, ethacrynic acid] |  |  |  |  | Solubility DMSO ([1]; DMSO): >50 mg/mL; Solubility Water ([1]; water / aqueous solvent): <1.0 mg/mL
CCN(CC)CCNC(=O)c1c(C)[nH]c(/C=C2\C(=O)Nc3ccc(N)cc32)c1C [47-1, 5-[5-amino-2-oxo-1,2-dihydro-indol-(3Z)-ylidenemethyl]-2,4-dimethyl-1H-pyrrole-3-carboxylic acid (2-diethylamino-ethyl)-amide] | > 50 | < 1 |  |  | 
CCN[C@H]1CN(CCCOC)S(=O)(=O)c2sc(S(=O)(=O)NC(=O)[C@H](C)OC(=O)[C@H](C)OC(=O)[C@H](C)OC(=O)CCCCC(=O)Oc3ccc4c(c3)/C(=C/c3[nH]c(C)c(C(=O)NCCN(CC)CC)c3C)C(=O)N4)cc21 [61-3, (3Z)-3-[(4-{[2-(diethylamino)ethyl]carbamoyl}-3,5-dimethyl-1H-pyrrol-2-yl)methylidene]-2-oxo-2,3-dihydro-1H-indol-5-yl 1-(2S)-1-[(2S)-1-[(1S)-1-({[(4R)-4-(ethylamino)-2-(3-methoxypropyl)-1,1-dioxo-2H,3H,4H-1λ^6-thieno[3,2-e][1,2]thiazin-6-yl]sulfonyl}carbamoyl)ethoxy]-1-oxopropan-2-yl]oxy}-1-oxopropan-2-yl hexanedioate] |  |  |  |  | Solubility DMSO ([1]; DMSO): >50 mg/mL; Solubility Water ([1]; water / aqueous solvent): <1.0 mg/mL

Further lines, with some results ahead:

solubility [1, 5] [mg/mL] | solubility [1, 6] [mg/mL] | IC50 [2] [nM] | solubility [1, 7] [mg/mL] | Structure (SMILES) | further results
 |  | 3.32 ± 2.71 |  | CCN[C@H]1C[C@H](C)S(=O)(=O)c2sc(S(=O)(=O)NC(=O)[C@H](C)O)cc21 [19-3, dorzolamide-PLA (n=1)] | in vitro stability / degradation kinetics [3]: the most stable
> 50 | < 1 | 44.1 ± 14.8 | > 50 | CCN[C@H]1C[C@H](C)S(=O)(=O)c2sc(S(=O)(=O)NC(=O)[C@H](C)OC(=O)[C@H](C)OC(=O)[C@H](C)OC(=O)[C@H](C)OC(C)=O)cc21 [27-1] | 
> 50 | > 50 | 10.7 ± 7.27 | > 50 | CCN[C@H]1CN(CCCOC)S(=O)(=O)c2sc(S(=O)(=O)NC(=O)[C@H](C)OC(=O)[C@H](C)O)cc21 [33-2, brinzolamide-PLA (n=2)] | primary compound remaining ([3]; 14 days): approximately 53%
 |  | 5.78 ± 3.78 |  | CCN[C@H]1CN(CCCOC)S(=O)(=O)c2sc(S(=O)(=O)NC(=O)[C@H](C)O)cc21 [32-3, brinzolamide-PLA (n=1)] | in vitro stability / degradation kinetics [3]: slowest; primary compound remaining ([3]; 14 days): > 98%
> 50 | > 50 | 16.4 ± 7.25 | > 50 | CCN[C@H]1C[C@H](C)S(=O)(=O)c2sc(S(=O)(=O)NC(=O)[C@H](C)OC(=O)[C@H](C)OC(=O)[C@H](C)OC(C)=O)cc21 [26-1] | 
> 50 | < 1 |  | < 7.5 | CCN[C@H]1CN(CCCOC)S(=O)(=O)c2sc(S(N)(=O)=O)cc21 [Brinzolamide, reference compound] | Solubility DMSO ([1]; DMSO): >50 mg/mL; Solubility Water ([1]; water / aqueous solvent): <1.0 mg/mL
< 1 | > 50 |  | < 1 | CCN[C@H]1C[C@H](C)S(=O)(=O)c2sc(S(N)(=O)=O)cc21 [Dorzolamide, reference compound] | organic solubility ([1]; organic solvent): low organic solubility; Solubility Water ([1]; water / aqueous solvent): >50 mg/mL
